Data as given in patent publication US9839214B2, “Solavetivone and 5-epi-beta-vertivone as pest repellants and pesticides” (EVOLVA, INC., priority 2012, dated 2017).

Assays:
[1] = tested on: adult bed bugs (Cimex lectularius); test: Bed bug repellency on half-treated filter paper in Petri dish chambers, Day 1; assay type: in vivo; conditions: for Repellancy / Repellancy, Averages: 0.5% active and 0.1% BHT in acetone on filter paper; for Repellancy / Repellancy, Averages / # bed bugs on the treated filter paper / # bed bugs on the treated filter paper, Averages: Day 1; for Repellancy: 50 bed bugs; for Repellancy, Averages / # bed bugs on the treated filter paper, Averages: average of 0.5-24 hr readings; for # bed bugs on the treated filter paper / # bed bugs on the treated filter paper, Averages: 0.5% active and 0.1% BHT in acetone, of 50 bed bugs; for time for which bed bugs are repelled following treatment: 0.5% active, Day 1 test
Procedure: A formulation, containing 0.5% solavetivone and 0.1% butylated hydroxytoluene (BHT) in acetone was tested for efficacy for repelling adult bed bugs (Cimex lectularius). Treatment chambers were created by cutting a circular hole in the bottom of 9-cm Petri dishes. A fine mesh nylon cloth was then glued to Petri dishes, covering the holes. The chambers were formed using the inverted Petri dishes with the screened bottoms serving as the tops and the lids forming the base of the chambers. The lids were secured with rubber bands. Five semi-circular pieces of filter paper, with a diameter of 9 cm were arranged so that they were evenly spaced on a sheet of aluminum foil. One (1) mL of 0.5% solavetivone solution, stored at ambient temperature and humidity, was applied to the filter papers. Five untreated semi-circular pieces were marked with the letter “c”, for control, on both sides in pencil or solvent resistant ink. One solavetivone-treated filter paper and one untreated filter paper were placed with the flat sides against each other, creating a full circle, in the lids of five 9-cm Petri dishes, serving as the treatment chambers described above, such that the entire surface of the lid was covered. Prior to addition of the bed bugs, the filter papers were confirmed to be completely dry and free of any residual acetone odor. Ten (10) bed bugs, having received a blood meal no more than 7 days before, were placed onto the untreated piece of paper and covered with the ventilated base of the Petri dish. The containers of each replicate were then kept at ambient laboratory temperature and humidity for the duration of the study. The distribution of the bed bugs on the treated and untreated filter papers was recorded at 0.5, 1, 1.5, 2, and 24 hours after being placed in the containers. Observations were made in darkness with the aid of a red lens flashlight. Gloves and a dust mask were worn by the observer to reduce detection of the bed bugs and to minimize disturbance caused by the observer. Five additional treatment chambers were created as described above, except the treated filter paper was soaked with acetone with 0.1% BHT (control treatment), instead of the 0.5% solavetivone solution. Bed bug distribution in the control chambers were recorded as described for the treatment condition. The solavetivone treatment repellency was calculated from the following equation: R=[(C−T)/C]*100, where R is the % repellency, C is the fraction of bed bugs on the acetone-treated filter papers, and T is the fraction of bed bugs on the solavetivone-treated filter papers. […] A formulation, containing 0.5% 5-epi-β-vetivone and 0.1% butylated hydroxytoluene (BHT) in acetone was tested for efficacy for repelling adult bed bugs (Cimex lectularius). Treatment chambers were prepared as described in Example 1A. Five semi-circular pieces of filter paper, with a diameter of 9 cm were arranged so that they were evenly spaced on a sheet of aluminum foil. One (1) mL of 0.5% 5-epi-β-vetivone solution, stored at ambient temperature and humidity, was applied to the filter papers. Five untreated semi-circular pieces were marked with the letter “c”, for control, on both sides in pencil or solvent resistant ink. One 5-epi-β-vetivone-treated filter paper and one untreated filter paper were placed with the flat sides against each other, creating a full circle, in the lids of five 9-cm Petri dishes, serving as the treatment chambers described above, such that the entire surface of the lid was covered. Prior to addition of the bed bugs, the filter papers were confirmed to be completely dry and free of any residual acetone odor. Ten (10) bed bugs, having received a blood meal no more than 7 days before, were placed onto the untreated piece of paper and covered with the ventilated base of the Petri dish. The containers of each replicate were then kept at ambient laboratory temperature and humidity for the duration of the study. […]

[2] = tested on: bed bug (Cimex lectularius); test: Extended bed bug repellency, same treated chambers with new bed bugs, Day 2; assay type: in vivo; conditions: for Repellancy / Repellancy, Averages: 0.5% active and 0.1% BHT in acetone on filter paper; for Repellancy / # bed bugs on the treated filter paper: Day 2, new bed bugs; for Repellancy: 50 bed bugs; for Repellancy, Averages / # bed bugs on the treated filter paper, Averages / time for which bed bugs are repelled following treatment: Day 2; for Repellancy, Averages / # bed bugs on the treated filter paper, Averages: average of 0.5-24 hr readings; for # bed bugs on the treated filter paper / # bed bugs on the treated filter paper, Averages: 0.5% active and 0.1% BHT in acetone, of 50 bed bugs; for time for which bed bugs are repelled following treatment: 0.5% active, extended test
Procedure: The bed bug (Cimex lectularius) treatment chambers described in part A above were used to test the duration of 0.5% solavetivone in acetone repellent effects. At the end of 24 hours, the old bed bugs were removed from each Petri dish and 10 new bed bugs were added to each dish, for a total of 50 bed bugs. The distribution of the new set of bed bugs was recorded at 0.5, 1, 1.5, 2, and 24 hours after their introduction to the chamber (Day 2). Observations were made and repellency was calculated as described in Section A above. […] The bed bug (Cimex lectularius) treatment chambers described in part A above were used to test the duration of 0.5% 5-epi-β-vetivone in acetone repellent effects. At the end of 24 hours, the old bed bugs were removed from each Petri dish and 10 new bed bugs were added to each dish, for a total of 50 bed bugs. The distribution of the new set of bed bugs was recorded at 0.5, 1, 1.5, 2, and 24 hours after their introduction to the chamber (Day 2). Observations were made and repellency was calculated as described in Section A above.

Structure (SMILES)	Repellancy ([1]; 0.5 hr) [%]	Repellancy ([1]; 1.0 hr) [%]	Repellancy ([1]; 1.5 hr) [%]	Repellancy ([1]; 2.0 hr) [%]	Repellancy ([1]; 24.0 hr) [%]	Repellancy, Averages [1] [%]	# bed bugs on the treated filter paper ([1]; 0.5 hr)	# bed bugs on the treated filter paper ([1]; 1.0 hr)	# bed bugs on the treated filter paper ([1]; 1.5 hr)	# bed bugs on the treated filter paper ([1]; 2.0 hr)	# bed bugs on the treated filter paper ([1]; 24.0 hr)	# bed bugs on the treated filter paper, Averages [1]	time for which bed bugs are repelled following treatment [1]	Repellancy ([2]; 0.5 hr after introduction) [%]	Repellancy ([2]; 1.0 hr after introduction) [%]	Repellancy ([2]; 1.5 hr after introduction) [%]	Repellancy ([2]; 2.0 hr after introduction) [%]	Repellancy ([2]; 24.0 hr after introduction) [%]	Repellancy, Averages [2] [%]	# bed bugs on the treated filter paper ([2]; 0.5 hr)	further results
CC1=CC(=O)C[C@@H](C)[C@@]12CCC(=C(C)C)C2 [5-epi-β-vetivone]	88.0	94.0	98.0	96.0	100.0	95.2	6	3	1	2	0	2.4	at least 24 hours	92.0	94.0	94.0	92.0	96.0	93.6	4	# bed bugs on the treated filter paper ([2]; 1.0 hr): 3; # bed bugs on the treated filter paper ([2]; 1.5 hr): 3; # bed bugs on the treated filter paper ([2]; 2.0 hr): 4; # bed bugs on the treated filter paper ([2]; 24.0 hr): 2; # bed bugs on the treated filter paper, Averages [2]: 3.2; time for which bed bugs are repelled following treatment [2]: at least 48 hours
C=C(C)[C@@H]1CC[C@@]2(C1)C(C)=CC(=O)C[C@H]2C [Solavetivone, solavetivone]	92.0	90.0	92.0	96.0	98.0	93.6	4	5	4	2	1	3.2	at least 24 hours	96.0	96.0	88.0	90.0	90.0	92.0	2	# bed bugs on the treated filter paper ([2]; 1.0 hr): 2; # bed bugs on the treated filter paper ([2]; 1.5 hr): 6; # bed bugs on the treated filter paper ([2]; 2.0 hr): 5; # bed bugs on the treated filter paper ([2]; 24.0 hr): 5; # bed bugs on the treated filter paper, Averages [2]: 4.0; time for which bed bugs are repelled following treatment [2]: at least 48 hours
